Results on 2 molecules are retold here after patent US11591658B2, “Methods for sub-typing and treating cancer” (HI-STEM gGmbH, priority 2017, dated 2023).

The test system of assay [1] is AML cells with long-term BCAT1-overexpression. As to the kind of experiment: Sensitivity of long-term BCAT1-overexpressing AML cells to daunorubicin. To be noted: FIG. 5i. The format is cell-based. The source says: AML patient survival is usually associated with sensitivity to standard chemotherapy^23,24. […] Along these lines, BCAT1 expression was consistently higher (on average 6.6-fold) in the relapse versus the paired diagnostic sample (FIG. 5j).

A further assay addresses T1, EGLN1 (Homo sapiens, UniProt Q9GZT9).
T1 construct: endogenous in cells; host or cells: HL-60 AML cells transduced with shBCAT1 (BCAT1 knockdown)
As to the kind of experiment: HIF1 protein levels in BCAT1 knockdown cells treated with cobalt chloride. The format is cell-based. To be noted: BCAT1 knockdown cells (HL-60), cobalt chloride given to inhibit EGLN1 activity, FIG. 4g. From the text: To gain additional mechanistic insight into cellular pathways affected by BCAT1, we utilized the HL-60 AML cell line. […] Western blot analysis confirmed HIF1 as downstream target of BCAT1 (FIG. 4e), and decreased HIF1 levels were due to enhanced protein degradation since the relative amount of hydroxylated Proline564 was increased after BCAT1 knockdown (FIG. 4f), as intracellular αKG is a co-factor of EGLN1 activity^14. […] Finally, lentiviral overexpression of HIF1 as well as shRNA-mediated knockdown of EGLN1 was sufficient to rescue the proliferation and survival defect after BCAT1-KD (FIG. 4h, i). Together, these analyses place BCAT1 upstream of HIF1 mediating its effect via the αKG-dependent activation of EGLN1. […] Knockdown of HIF1 is sufficient to abrogate LSC function^16.

T1 sequence (Q9GZT9 whole entry): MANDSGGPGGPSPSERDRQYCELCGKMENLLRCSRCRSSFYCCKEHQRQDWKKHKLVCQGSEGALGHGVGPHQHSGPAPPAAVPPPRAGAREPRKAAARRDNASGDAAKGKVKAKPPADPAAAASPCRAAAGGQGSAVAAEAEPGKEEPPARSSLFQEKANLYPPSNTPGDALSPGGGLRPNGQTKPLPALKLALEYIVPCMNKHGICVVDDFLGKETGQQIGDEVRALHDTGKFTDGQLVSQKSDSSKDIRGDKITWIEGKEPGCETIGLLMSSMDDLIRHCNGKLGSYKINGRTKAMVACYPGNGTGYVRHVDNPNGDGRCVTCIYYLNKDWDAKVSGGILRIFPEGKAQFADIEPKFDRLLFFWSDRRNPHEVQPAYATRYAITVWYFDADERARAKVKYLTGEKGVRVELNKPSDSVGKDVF

For the molecule `COc1cccc2c1C(=O)c1c(O)c3c(c(O)c1C2=O)C[C@@](O)(C(C)=O)C[C@@H]3O[C@H]1C[C@H](N)[C@H](O)[C@H](C)O1` [daunorubicin], in assay [1], the resistance to daunorubicin result is “increased resistance”.
Regarding `[Cl][Co][Cl]` [cobalt chloride], the HIF1 protein levels result on EGLN1 is “attenuated decrease of HIF1 protein levels”.
